{"source": "paper PMC6271858", "about": "“Identification of Natural Compound Carnosol as a Novel TRPA1 Receptor Agonist” (Molecules, 2014)", "key": {"human TRPA1": {"target": "human TRPA1 (Homo sapiens, UniProt O75762)", "sequence (O75762 whole entry)": "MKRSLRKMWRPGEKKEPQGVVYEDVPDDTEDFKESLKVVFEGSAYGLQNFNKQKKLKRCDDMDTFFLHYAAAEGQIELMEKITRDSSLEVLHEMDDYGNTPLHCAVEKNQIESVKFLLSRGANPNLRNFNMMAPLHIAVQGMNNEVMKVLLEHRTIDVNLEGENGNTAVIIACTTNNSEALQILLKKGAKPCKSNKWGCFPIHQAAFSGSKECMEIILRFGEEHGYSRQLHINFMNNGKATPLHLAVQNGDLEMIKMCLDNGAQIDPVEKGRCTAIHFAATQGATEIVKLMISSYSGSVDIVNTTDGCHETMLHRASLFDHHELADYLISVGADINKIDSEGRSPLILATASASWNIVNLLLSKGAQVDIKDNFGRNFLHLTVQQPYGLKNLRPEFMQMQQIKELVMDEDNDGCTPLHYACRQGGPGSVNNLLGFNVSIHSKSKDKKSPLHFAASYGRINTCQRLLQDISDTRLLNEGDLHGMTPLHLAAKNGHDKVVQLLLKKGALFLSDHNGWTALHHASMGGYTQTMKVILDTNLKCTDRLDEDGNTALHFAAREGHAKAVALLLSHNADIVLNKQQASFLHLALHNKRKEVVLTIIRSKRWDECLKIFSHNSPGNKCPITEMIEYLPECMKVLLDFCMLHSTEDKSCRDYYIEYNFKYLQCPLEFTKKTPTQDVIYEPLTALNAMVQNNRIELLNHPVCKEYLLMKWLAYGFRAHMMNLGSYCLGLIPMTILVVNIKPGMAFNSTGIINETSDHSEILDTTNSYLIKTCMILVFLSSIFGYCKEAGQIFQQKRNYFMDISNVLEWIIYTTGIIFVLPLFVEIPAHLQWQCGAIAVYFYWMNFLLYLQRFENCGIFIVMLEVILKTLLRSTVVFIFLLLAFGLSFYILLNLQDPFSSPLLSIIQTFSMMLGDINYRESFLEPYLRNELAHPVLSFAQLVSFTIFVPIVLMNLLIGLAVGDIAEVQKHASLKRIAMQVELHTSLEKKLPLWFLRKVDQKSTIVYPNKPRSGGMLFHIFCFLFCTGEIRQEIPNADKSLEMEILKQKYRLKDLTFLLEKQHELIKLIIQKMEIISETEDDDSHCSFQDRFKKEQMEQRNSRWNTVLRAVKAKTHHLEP", "experiment": "Calcium mobilization agonist assay in HEK293/TRPA1 cells", "type": "cell-based", "conditions": "for EC80 value: agonist concentration used to evoke the antagonist assay", "experimental": "HEK293/TRPA1 cells were seeded at a density of 3.5 × 10^4 per well into 96-well clear-bottom black plates coated with matrigel and incubated in 5% CO2 at 37 °C overnight. On the day of assay, the growth medium was replaced by 100 µL loading buffer containing a final concentration of 4 μM Ca^2+-sensitive dye Fluo-4 AM and 2 mM acid red 1 in HBSS. The plate was then incubated at 37 °C in dark for 30 min before calcium signal read out. For antagonists study, 80 µL loading buffer was added into each well and 20 µL HBSS containing tested compound was added 10 min prior to calcium-flux measurement.\nCells were transferred to a Flexstation II (Molecular Devices) for experimentation. Basal fluorescence was recorded for 16 s before agonist application. The integrated Flexstation II fluidics system added 25 µL compound (5× solution) from the agonist compound plate to the assay plate containing 100 µL loading buffer solution. Relative fluorescence units (RFU) were read by FlexStation II at 37 °C with an excitation wavelength of 485 nm and an emission wavelength of 525 nm. The fluorescence intensity was read every 1.52 s for 80 s.\nNinety µM CA and 0.25% DMSO were used as the positive and negative control respectively during primary screening of TRPA1 agonist. Hits above the cutoff value (50%) were picked for retesting, percentage of increased calcium signal was calculated as following equation: (2) Activity%=RFUcompound−RFUnegative/RFUpositive−RFUnegative×100"}, "HEK293 host cells": {"tested_on": "HEK293 host cells", "experiment": "Compound specificity assay, calcium influx in HEK293 host cells", "type": "cell-based, human", "conditions": "compared with 0.25% DMSO group; positive control 5 μM ATP", "experimental": "To observe whether the identified compounds induce calcium influx in HEK293 host cells, the cells were treated with various concentrations of tested compounds. Meanwhile, 5 μM ATP and 0.25% DMSO were used as the positive and negative control, respectively. The regulatory activity of tested samples was defined as follows: (3) Activity%=RFUcompound/RFUpositive×100"}, "HEK293/TRPA1 cells": {"tested_on": "HEK293/TRPA1 cells", "experiment": "Compound cytotoxicity assay (CellTiter-Glo, luciferase coupled ATP quantitation)", "type": "cell-based, human", "conditions": "2 h incubation, compared to the control group", "experimental": "HEK293/TRPA1 cells were seeded at 3.5 × 10^4 per well into 96-well clear-bottom black plates and incubated in 5% CO2 at 37 °C overnight. Different concentrations of the compound were added into the 96-well plates and incubated in 5% CO2 at 37 °C for 2 h. Luminescence was read by Envision 2100 multilabel reader to detect cells’ viability following incubation with CellTiter-Glo reagent for 10 min."}, "TRPM8": {"target": "TRPM8 (Homo sapiens, UniProt Q7Z2W7)", "sequence (Q7Z2W7 whole entry)": "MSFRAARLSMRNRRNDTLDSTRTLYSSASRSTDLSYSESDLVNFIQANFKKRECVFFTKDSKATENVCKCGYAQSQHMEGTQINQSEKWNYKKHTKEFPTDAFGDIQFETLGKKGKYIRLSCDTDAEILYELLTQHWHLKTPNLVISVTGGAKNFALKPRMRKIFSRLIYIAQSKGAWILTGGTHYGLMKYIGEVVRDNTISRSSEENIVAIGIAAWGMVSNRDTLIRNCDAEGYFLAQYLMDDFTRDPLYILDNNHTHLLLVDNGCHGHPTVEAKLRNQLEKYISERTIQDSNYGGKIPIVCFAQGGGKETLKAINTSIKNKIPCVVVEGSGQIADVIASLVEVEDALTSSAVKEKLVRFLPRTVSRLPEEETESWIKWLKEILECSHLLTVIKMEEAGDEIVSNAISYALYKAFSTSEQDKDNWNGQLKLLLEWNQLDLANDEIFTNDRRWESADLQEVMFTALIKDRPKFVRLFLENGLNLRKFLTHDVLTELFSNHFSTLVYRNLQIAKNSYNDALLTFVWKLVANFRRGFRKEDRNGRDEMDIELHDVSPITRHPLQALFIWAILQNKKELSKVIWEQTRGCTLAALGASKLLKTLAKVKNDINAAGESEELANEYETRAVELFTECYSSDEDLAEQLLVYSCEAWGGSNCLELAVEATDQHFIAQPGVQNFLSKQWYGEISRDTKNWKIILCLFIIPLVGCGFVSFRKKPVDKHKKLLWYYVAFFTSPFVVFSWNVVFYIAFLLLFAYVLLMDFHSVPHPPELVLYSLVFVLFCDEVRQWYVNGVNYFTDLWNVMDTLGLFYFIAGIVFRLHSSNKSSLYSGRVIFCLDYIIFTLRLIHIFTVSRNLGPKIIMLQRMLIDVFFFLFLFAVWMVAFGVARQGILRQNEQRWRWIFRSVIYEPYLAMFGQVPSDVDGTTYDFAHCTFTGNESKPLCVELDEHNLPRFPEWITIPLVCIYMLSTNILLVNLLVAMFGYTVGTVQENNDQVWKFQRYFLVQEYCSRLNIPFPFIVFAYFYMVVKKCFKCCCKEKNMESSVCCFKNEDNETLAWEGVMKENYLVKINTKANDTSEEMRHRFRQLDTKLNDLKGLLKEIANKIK", "experiment": "Compound selectivity calcium mobilization assay in HEK293/TRPM8 cells", "type": "cell-based", "experimental": "HEK 293 cell lines stably expressing human TRPA1, TRPM8 and TRPV3 channels, respectively, were established by HD Bioscience Co. Ltd (SH, China) according to the cell line generation procedure in published articles of our laboratory. All HEK293 cell lines used in this study were routinely maintained in DMEM containing 10% FBS, 100 U/mL penicillin, and 100 μg/mL streptomycin in a humidified atmosphere of 5% CO2 at 37 °C. HEK293/TRPA1, HEK293/TRPM8 and HEK293/TRPV3 cells were incubated with complete culture medium along with 50 μg/mL hygromycin B.\n(§1) To study the specificity of the action target of identified compounds, the activating effect on TRPM8 and TRPV3 was tested. HEK293 cell lines stably expressing TRPM8 and TRPV3 receptors were separately stimulated by a serious concentrations of identified compounds using calcium mobilization assay as described above."}, "TRPV3": {"target": "T1, TRPV3 (Homo sapiens, UniProt Q8NET8)", "T1 sequence (Q8NET8 1-790)": "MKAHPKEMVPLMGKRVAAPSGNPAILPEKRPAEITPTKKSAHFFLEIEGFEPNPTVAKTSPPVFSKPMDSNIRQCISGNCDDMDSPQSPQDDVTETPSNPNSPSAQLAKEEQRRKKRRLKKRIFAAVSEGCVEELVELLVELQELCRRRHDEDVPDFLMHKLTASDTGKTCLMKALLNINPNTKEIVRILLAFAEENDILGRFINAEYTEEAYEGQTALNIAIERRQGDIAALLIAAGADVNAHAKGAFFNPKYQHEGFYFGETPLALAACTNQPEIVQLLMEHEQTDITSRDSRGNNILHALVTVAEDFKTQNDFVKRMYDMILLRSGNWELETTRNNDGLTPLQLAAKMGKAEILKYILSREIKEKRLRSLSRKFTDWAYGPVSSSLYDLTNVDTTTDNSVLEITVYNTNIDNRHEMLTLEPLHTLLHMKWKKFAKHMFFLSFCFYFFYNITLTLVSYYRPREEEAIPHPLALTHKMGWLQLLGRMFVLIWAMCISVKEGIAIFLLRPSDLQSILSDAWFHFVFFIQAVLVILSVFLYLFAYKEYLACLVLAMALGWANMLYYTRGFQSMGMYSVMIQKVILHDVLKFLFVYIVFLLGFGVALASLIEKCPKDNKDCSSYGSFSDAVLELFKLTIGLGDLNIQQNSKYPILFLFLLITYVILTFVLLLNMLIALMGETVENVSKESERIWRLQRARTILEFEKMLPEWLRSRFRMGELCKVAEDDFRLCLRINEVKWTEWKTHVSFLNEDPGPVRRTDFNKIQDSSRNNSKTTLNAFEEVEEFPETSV", "experiment": "Compound selectivity calcium mobilization assay in HEK293/TRPV3 cells", "type": "cell-based", "conditions": "series of concentrations", "experimental": "All HEK293 cell lines used in this study were routinely maintained in DMEM containing 10% FBS, 100 U/mL penicillin, and 100 μg/mL streptomycin in a humidified atmosphere of 5% CO2 at 37 °C. HEK293/TRPA1, HEK293/TRPM8 and HEK293/TRPV3 cells were incubated with complete culture medium along with 50 μg/mL hygromycin B.\nas §1"}}, "note": "Entries after “also recorded” stand apart in the source; their conditions may differ. Read-outs that look alike come from different tables or passages of the source."}
{"smiles": "O=C/C=C/c1ccccc1", "note": "[CA, cinnamaldehyde, reference compound]", "values": [{"measurement": "EC50", "setting": "human TRPA1", "result": 31.5, "unit": "µM"}, {"measurement": "EC80 value", "setting": "human TRPA1; HEK293/TRPA1 cells", "result": 90, "unit": "µM"}]}
{"smiles": "CC(C)c1cc2c(c(O)c1O)[C@@]1(C(=O)O)CCCC(C)(C)[C@@H]1CC2", "note": "[carnosic acid, Carnosic acid]", "values": [{"measurement": "Calcium signal in HEK293/TRPA1 cell line", "setting": "human TRPA1; at 90 µM", "result": "caused calcium signal"}, {"measurement": "Calcium signal in HEK293 host cells", "setting": "HEK293 host cells", "result": "acted on HEK293 host cells"}]}
{"smiles": "CC(C)c1cc2c(c(O)c1O)[C@@]13CCCC(C)(C)[C@@H]1C[C@@H]2OC3=O", "note": "[carnosol, Carnosol]", "values": [{"measurement": "Calcium signal in primary screening", "setting": "human TRPA1; 10 μM, HEK293/TRPA1 cells, positive control 90 µM CA, negative control 0.25% DMSO", "result": "showed significant difference compared with the negative control; also recorded: comparable to the positive control"}, {"measurement": "EC80 value", "setting": "human TRPA1; HEK293/TRPA1 cells", "result": 30, "unit": "µM"}, {"measurement": "EC50", "setting": "human TRPA1; HEK293/TRPA1 cells, calcium mobilization, agonist concentration-response, read-out: EC50", "result": 12.5, "unit": "µM"}, {"measurement": "Cytotoxicity on HEK293/TRPA1 cells", "setting": "HEK293/TRPA1 cells", "result": "no significant cytotoxicity"}, {"measurement": "Stimulation signal in HEK/TRPM8 cell line", "setting": "TRPM8; series of concentrations, calcium mobilization", "result": "no stimulation signal"}, {"measurement": "Stimulation signal in HEK/TRPV3 cell line", "setting": "TRPV3", "result": "no stimulation signal"}, {"measurement": "Calcium signal in HEK293 host cells", "setting": "HEK293 host cells", "result": "no significant difference"}]}
{"smiles": "O=C1NC(c2cccc([N+](=O)[O-])c2)=CCN1c1ccccc1O", "note": "[icilin, Icilin, reference compound]", "values": [{"measurement": "EC50", "setting": "TRPM8; HEK293/TRPM8 cells, calcium response (data not shown)", "result": 0.17, "unit": "µM"}]}
{"smiles": "C[C@H]1[C@H](C)CC[C@]2(C(=O)O)CC[C@]3(C)C(=CC[C@@H]4[C@@]5(C)CC[C@H](O)C(C)(C)[C@@H]5CC[C@]43C)[C@H]12", "note": "[ursolic acid, Ursolic acid]", "values": [{"measurement": "Calcium signal in HEK293/TRPA1 cell line", "setting": "human TRPA1; up to 90 µM", "result": "no significant calcium signal"}]}
